{"source": "paper PMC7190335", "about": "(Science Advances, 2020)", "origin": "cited, not measured here", "target": "T1, COUP-TFII (Homo sapiens, UniProt P24468)", "T1 sequence (P24468 1-414)": "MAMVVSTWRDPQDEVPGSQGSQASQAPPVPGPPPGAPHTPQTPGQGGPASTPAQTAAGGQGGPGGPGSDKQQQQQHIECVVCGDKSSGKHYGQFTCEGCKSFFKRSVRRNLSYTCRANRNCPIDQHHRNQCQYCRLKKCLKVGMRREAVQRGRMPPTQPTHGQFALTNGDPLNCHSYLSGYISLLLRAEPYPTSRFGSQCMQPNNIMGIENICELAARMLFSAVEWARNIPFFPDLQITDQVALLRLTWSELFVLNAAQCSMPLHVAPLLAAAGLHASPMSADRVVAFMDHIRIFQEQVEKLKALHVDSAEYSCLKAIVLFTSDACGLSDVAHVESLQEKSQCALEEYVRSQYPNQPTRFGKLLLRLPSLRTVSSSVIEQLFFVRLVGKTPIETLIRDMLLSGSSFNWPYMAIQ", "data": [{"smiles": "COc1ccc(O)c2ccccc12", "note": "[4-methoxynaphthol compound, 4-methoxynaphthol]", "values": [{"measurement": "concentration needed to reduce COUP-TFII activity", "value": "up to 100 μM"}]}]}
